Data on 16 compounds can be found in article PMC7996328, “Design, Synthesis, and Biological Evaluation of a Series of 5- and 7-Hydroxycoumarin Derivatives as 5-HT1A Serotonin Receptor Antagonists” (Pharmaceuticals, 2021).

By melting point is commonly meant the temperature of the solid-liquid transition. The IC50 is the point on the concentration scale where inhibition reaches its midpoint. The low end stands for greater potency, the high end for weaker potency. One may read the EC50 as the concentration that produces a half-maximal response. A high value points to weaker potency.

The target of one series is T1, 5-HT2A receptor (Rattus norvegicus, UniProt P14842).
T1 construct: from tissue; host or cells: rat frontal cortex (male SD), membrane homogenate
T1 sequence (P14842 whole entry): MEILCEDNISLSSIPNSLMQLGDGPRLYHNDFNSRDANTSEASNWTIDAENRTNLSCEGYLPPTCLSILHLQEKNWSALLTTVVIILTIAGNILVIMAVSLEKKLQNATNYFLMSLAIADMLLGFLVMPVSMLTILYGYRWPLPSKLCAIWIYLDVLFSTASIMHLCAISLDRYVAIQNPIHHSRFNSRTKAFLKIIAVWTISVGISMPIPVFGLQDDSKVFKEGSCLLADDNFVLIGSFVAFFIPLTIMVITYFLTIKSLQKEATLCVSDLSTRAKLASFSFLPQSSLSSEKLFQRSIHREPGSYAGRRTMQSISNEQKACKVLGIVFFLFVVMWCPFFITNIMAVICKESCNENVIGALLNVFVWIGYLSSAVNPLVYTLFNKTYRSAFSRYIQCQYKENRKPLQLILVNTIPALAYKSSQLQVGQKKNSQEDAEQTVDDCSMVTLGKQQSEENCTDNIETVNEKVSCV
As to the kind of experiment: 5-HT2A competition binding assay, [3H]ketanserin, frontal cortex homogenates. The note with it: [3H]ketanserin 1 nM. Here is the method:
Male SD rats were decapitated and their brains removed and placed on ice. Frontal cortices were homogenized with a glass homogenizer in 30 vol ice-cold homogenization buffer (50 mM Tris-HCl. 1 mM EDTA. 5 mM MgCl2. pH 7.4). Next, the homogenate was centrifuged at 20,000× g for 15 min at 4 °C. […] The suspension was again centrifuged at 20,000× g for 15 min at 4 °C. The pellet was resuspended in 10 vol. 50 mM Tris-HCl (pH 7.4) and the centrifugation step was repeated. The final pellet was suspended in 10 vol 50 mM Tris-HCl (pH 7.4) and stored at −80 °C.
Non-specific binding was determined in the presence of 10 μM mianserin. After incubation, the reaction mixture was deposited onto UniFilter-96 GF/B plates with the aid of a FilterMate-96 Harvester. Filter plates were presoaked beforehand with 0.4% PEI for 1 h. Next, each filter well was washed with 1.75 mL of 50 mM Tris-HCl (pH 7.4) and left to dry on a heating block set to 50 °C for 2 h. Then 45 µL of Microscint-20 scintillation fluid was added to each filter well and left to equilibrate overnight. Filter-bound radioactivity was counted in a MicroBeta^2 Microplate Counter. Binding curves were fitted with one site non-linear regression. Affinity was presented as the inhibitory constant (pKi ± SEM and Ki ± SEM) from two or three separate experiments.

A further series addresses T2, 5-HT1A receptor (Rattus norvegicus, UniProt P19327).
T2 construct: Hippocampal homogenates (15 μg/mL) were added to each tube as the 5-HT1A receptor source; from tissue; host or cells: rat hippocampus (male Sprague-Dawley), membrane homogenate
T2 sequence (P19327 1-422): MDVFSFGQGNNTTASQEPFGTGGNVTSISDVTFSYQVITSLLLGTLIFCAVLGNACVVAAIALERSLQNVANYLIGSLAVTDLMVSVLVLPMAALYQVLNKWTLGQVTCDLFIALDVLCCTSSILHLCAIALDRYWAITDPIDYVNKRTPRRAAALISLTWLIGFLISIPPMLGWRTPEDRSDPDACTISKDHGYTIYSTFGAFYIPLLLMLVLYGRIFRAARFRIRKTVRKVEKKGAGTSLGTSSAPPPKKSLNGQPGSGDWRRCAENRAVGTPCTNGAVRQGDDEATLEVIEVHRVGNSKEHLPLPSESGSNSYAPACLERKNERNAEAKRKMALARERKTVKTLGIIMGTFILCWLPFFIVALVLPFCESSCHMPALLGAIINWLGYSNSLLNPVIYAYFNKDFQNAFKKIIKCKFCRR
As to the kind of experiment: Antagonist activity for the 5-HT1A receptor, [35S]GTPγS assay in hippocampal homogenates. The format is biochemical. The note with it: 8-OH-DPAT 1.4 × 10^−7 M, mean ± SEM; for EC50 (nM ± SEM) / EC50: antagonistic activity. On the procedure:
Male Sprague–Dawley rats were decapitated, their brains removed, and placed on ice. Hippocampi were dissected and homogenized with a glass homogenizer in 30 vol. ice-cold TED buffer (50 mM Tris-HCl, 1 mM EDTA, 1mM dithiotheritol, pH 7.4). Next, the homogenate was centrifuged at 21,000× g for 30 min at 4 °C. […] The suspension was centrifuged again at 21,000× g for 30 min at 4 °C. The pellet was resuspended in 30 vol. TED buffer (pH 7.4) and the centrifugation step was repeated. The final pellet was suspended in 10 vol 50 mM Tris-HCl (pH 7.4) and stored at −80 °C until use.
Serial dilutions of the compounds tested (10^−10–10^−5 M) were incubated in triplicate with 0.8 nM [^35S]GTPγS in assay buffer (50 mM Tris-HCl, pH = 7.4, 1 mM EGTA, 3 mM MgCl2, 100 mM NaCl, 30 µM GDP) and 8-OH-DPAT (final concentration 1.4 × 10^−7 M) in the final assay volume of 250 µL. Hippocampal homogenates (15 μg/mL) were added to each tube as the 5-HT1A receptor source. […] Non-specific binding was determined with 10 µM of unlabeled GTPγS. […] Next, 96-well Unifilter® Plates (Perkin Elmer, Waltham, MA, USA) were presoaked for 1 h with 50 mM Tris-HCl (pH = 7.4) before harvesting. The reaction was terminated by vacuum filtration onto filter plates with the FilterMate Harvester® (Perkin Elmer, Waltham, MA, USA). The samples were then rapidly washed with 2 mL of 50 mM Tris-HCl (pH = 7.4) buffer. Filter plates were dried for 2 h at 50 °C. After drying, 45 µL of EcoScint-20 scintillant (Perkin Elmer) was added to every well. Radioactivity was counted in a Trilux MicroBeta^2 counter (Perkin Elmer). Data were analyzed with GraphPad Prism 5.0 software (GraphPad Software, San Diego, CA, USA, www.graphpad.com). Curves were fitted with a one-site non-linear regression model. Efficacy (Emax) and half maximal inhibitory concentration (IC50) were calculated from the Cheng–Prusoff equation and expressed as means ± SEM.
In general terms: Binding of GTPγS marks nucleotide exchange on a G protein.

[1] abbreviates: read-out: Ki (nM ± SEM) (converted).
Where [2] appears, read: read-out: pKi (M ± SEM) (converted).

Structures are written as SMILES. Entries after “also recorded” stand apart in the source; their conditions may differ. Like-named read-outs stand apart in the source and are kept apart here.

Consider `Cc1ccc(C)c(N2CCN(CCOc3cc(C)cc4oc(=O)cc(C)c34)CC2)c1` [Compound 2d, 5-(2-(4-(2,5-dimethylphenyl)piperazin-1-yl)ethoxy)-4,7-dimethyl-2H-chromen-2-one], for which the melting point lay within 119 to 120 °C. Also, the Ki at 5-HT2A receptor (setting [1]) was 7320 ± 2080 nM. Moreover, at 5-HT2A receptor (setting [2]), the Ki was 7410 nM. At 5-HT1A receptor, the “pIC50 ± SEM” value is on record as “no activity” and the “EC50 (nM ± SEM)” value is on record as “did not show any activity; also recorded: no activity”.
As for `Cc1cc(OCCN2CCN(c3ccccc3Br)CC2)c2c(C)cc(=O)oc2c1` [Compound 2f, 5-(2-(4-(2-bromophenyl)piperazin-1-yl)ethoxy)-4,7-dimethyl-2H-chromen-2-one], the melting point was in the range of 129 to 130 °C. Further, the Ki at 5-HT2A receptor (setting [1]) is 9600 ± 2840 nM. Also, on 5-HT1A receptor, the “pIC50 ± SEM” value is listed as “no activity” and the “EC50 (nM ± SEM)” value is recorded as “did not show any activity; also recorded: no activity”.
In the case of `Cc1cc(C)cc(N2CCN(CCOc3cc(C)cc4oc(=O)cc(C)c34)CC2)c1` [Compound 2h, 5-(2-(4-(3,5-dimethylphenyl)piperazin-1-yl)ethoxy)-4,7-dimethyl-2H-chromen-2-one], the melting point lay within 149 to 150 °C. Moreover, on 5-HT2A receptor (setting [1]), the Ki was 2920 ± 992 nM. Further, at 5-HT1A receptor, the “pIC50 ± SEM” value is recorded as “no activity” and the “EC50 (nM ± SEM)” value is reported as “did not show any activity; also recorded: no activity”.
In turn, `Cc1cc(OCCN2CCN(c3cccc(Cl)c3Cl)CC2)c2c(C)cc(=O)oc2c1` [Compound 2i, 5-(2-(4-(2,3-dichlorophenyl)piperazin-1-yl)ethoxy)-4,7-dimethyl-2H-chromen-2-one] showed a melting point of 142 to 145 °C. The Ki at 5-HT2A receptor (setting [1]) was 4310 ± 1550 nM. At 5-HT1A receptor, this compound had an IC50 of 398 µM and an EC50 of 366000 nM.
As to `Cc1cc(OCCN2CCN(c3ccccc3C#N)CC2)c2c(C)cc(=O)oc2c1` [Compound 2j, 5-(2-(4-(2-cyanophenyl)piperazin-1-yl)ethoxy)-4,7-dimethyl-2H-chromen-2-one], the melting point lay within 127 to 129 °C. Moreover, the Ki on 5-HT2A receptor (setting [1]) is 5620 ± 1850 nM. For the same compound, at 5-HT1A receptor, the “pIC50 ± SEM” value is “no activity” and the “EC50 (nM ± SEM)” value is recorded as “did not show any activity; also recorded: no activity”.
Turning to `CC(=O)c1c(C)cc2oc(=O)cc(C)c2c1OCCCCCN1CCN(c2ccccc2F)CC1` [Compound 3b, 6-acetyl-5-(5-(4-(2-fluorophenyl)piperazin-1-yl)pentyloxy)-4,7-dimethyl-2H-chromen-2-one], the melting point lay within 137 to 139 °C. Further, the Ki on 5-HT2A receptor (setting [1]) was 1220 ± 166 nM. For the same compound, the Ki on 5-HT2A receptor (setting [2]) was 1170 nM. Besides, on 5-HT1A receptor, 20 µM corresponded to half-maximal inhibition (IC50) and the EC50 came out at 19200 nM.
Compound `COc1cccc(N2CCN(CCCCCOc3c(C(C)=O)c(C)cc4oc(=O)cc(C)c34)CC2)c1` [Compound 3c, 6-acetyl-5-(5-(4-(3-methoxyphenyl)piperazin-1-yl)pentyloxy)-4,7-dimethyl-2H-chromen-2-one] yielded a melting point of 86 to 88 °C. Further, the Ki at 5-HT2A receptor (setting [1]) was 492 ± 99.7 nM. On 5-HT1A receptor, the IC50 was 1.58 µM and the EC50 came out at 1550 ± 190 nM.
For `CC(=O)c1c(C)cc2oc(=O)cc(C)c2c1OCCCCCN1CCN(c2cc(C)ccc2C)CC1` [Compound 3d, 6-acetyl-5-(5-(4-(2,5-dimethylphenyl)piperazin-1-yl)pentyloxy)-4,7-dimethyl-2H-chromen-2-one], in that order: 97 to 99 °C, 1940 ± 388 nM, 10 µM and 9430 ± 1040 nM.
In the case of `CC(=O)c1c(C)cc2oc(=O)cc(C)c2c1OCCCCCN1CCN(c2cccc(F)c2)CC1` [Compound 3e, 6-acetyl-5-(5-(4-(3-fluorophenyl)piperazin-1-yl)pentyloxy)-4,7-dimethyl-2H-chromen-2-one], the melting point was in the range of 150 to 152 °C. Moreover, the Ki at 5-HT2A receptor (setting [1]) is 1420 ± 426 nM. On 5-HT1A receptor, half-maximal inhibition (IC50) required 0.708 µM and the EC50 was 702 ± 112 nM.
`CC(=O)c1c(C)cc2oc(=O)cc(C)c2c1OCCCCCN1CCN(c2ccccc2Br)CC1` [Compound 3f, 6-acetyl-5-(5-(4-(2-bromophenyl)piperazin-1-yl)pentyloxy)-4,7-dimethyl-2H-chromen-2-one]: the melting point lay in the range of 108 to 109 °C. For the same compound, on 5-HT2A receptor (setting [1]), the Ki was 354 ± 110 nM. On 5-HT1A receptor, this compound showed an IC50 of 0.692 µM and an EC50 of 689 ± 138 nM.
The compound `CC(=O)c1c(C)cc2oc(=O)cc(C)c2c1OCCCCCN1CCN(c2cccc(Br)c2)CC1` [Compound 3g, 6-acetyl-5-(5-(4-(3-bromophenyl)piperazin-1-yl)pentyloxy)-4,7-dimethyl-2H-chromen-2-one] returned a melting point of 100 to 102 °C. In addition, the Ki on 5-HT2A receptor (setting [1]) is 664 ± 154 nM. Besides, at 5-HT1A receptor, inhibition was half-maximal at 1.29 µM (IC50) and a half-maximal response (EC50) required 1280 ± 254 nM.
In the case of `CC(=O)c1c(C)cc2oc(=O)cc(C)c2c1OCCCCCN1CCN(c2cc(C)cc(C)c2)CC1` [Compound 3h, 6-acetyl-5-(5-(4-(3,5-dimethylphenyl)piperazin-1-yl)pentyloxy)-4,7-dimethyl-2H-chromen-2-one], the melting point is 100 to 102 °C. Besides, the Ki on 5-HT2A receptor (setting [1]) was 1800 ± 521 nM. At 5-HT1A receptor, this compound gave an IC50 of 1.26 µM and an EC50 of 1240 ± 112 nM.
For `CC(=O)c1c(C)cc2oc(=O)cc(C)c2c1OCCCCCN1CCN(c2cccc(Cl)c2Cl)CC1` [Compound 3i, 6-acetyl-5-(5-(4-(2,3-dichlorophenyl)piperazin-1-yl)pentyloxy)-4,7-dimethyl-2H-chromen-2-one], in that order: 129 to 130 °C, 486 ± 102 nM, 15.8 µM and 15400 nM.
Take `COc1ccccc1N1CCN(CCOc2c(C(C)=O)c(C)cc3oc(=O)cc(C)c23)CC1` [Compound 4a, 6-acetyl-5-(2-(4-(2-methoxyphenyl)piperazin-1-yl)ethoxy)-4,7-dimethyl-2H-chromen-2-one]: the melting point is 132 to 134 °C. The Ki on 5-HT2A receptor (setting [1]) is 5210 ± 1250 nM. For the same compound, on 5-HT1A receptor, the concentration for half-maximal inhibition (IC50) was 0.1 µM and the EC50 came out at 91.6 ± 13.3 nM.
As to `CC(=O)c1c(C)cc2oc(=O)cc(C)c2c1OCCN1CCN(c2ccccc2F)CC1` [Compound 4b, 6-acetyl-5-(2-(4-(2-fluorophenyl)piperazin-1-yl)ethoxy)-4,7-dimethyl-2H-chromen-2-one], the melting point lay within 118 to 119 °C. For the same compound, the Ki on 5-HT2A receptor (setting [1]) was 7050 ± 1650 nM. At 5-HT1A receptor, this compound had an IC50 of 5.01 µM and an EC50 of 5000 ± 218 nM.
`COc1cccc(N2CCN(CCOc3c(C(C)=O)c(C)cc4oc(=O)cc(C)c34)CC2)c1` [Compound 4c, 6-acetyl-5-(2-(4-(3-methoxyphenyl)piperazin-1-yl)ethoxy)-4,7-dimethyl-2H-chromen-2-one] had a melting point of 75 to 76 °C. In addition, on 5-HT2A receptor (setting [1]), the Ki is 513 ± 137 nM. At 5-HT1A receptor, this compound gave an IC50 of 5.01 µM and a 50% effective concentration (EC50) of 5010 ± 117 nM.
